These results are taken from publication PMC7822816, “Halo-fluorescein for photodynamic bacteria inactivation in extremely acidic conditions” (Nature Communications, 2021).

One data set has as its system Salmonella. Nature of the data set: IC50 of photodynamic inactivation, Salmonella. Conditions: 10 min, pH 2.5, read-out: IC50 (Salmonella).
A short description of data set [1]: Relative singlet oxygen quantum yield (1O2 phosphorescence, Rose Bengal standard). The class given is physicochemical. Also on record: key: relative to Rose Bengal standard (ΦΔ = 0.75). Conditions: pH = 10 media; relative, RB as the standard. The procedure:
To permit the open-form structure of all fluorescein derivatives, all the measurements were carried out in pH = 10 media.
The singlet oxygen quantum yields (ΦΔ) of all fluorescein-based PSs were evaluated with Rose Bengal as the standard (ΦΔ = 0.75):1 ΦΔ=AsAbsorption/As(Emission)×ARB(Emission)/ARB(Absorption)×0.75 Here, the area of absorption (RB and PSs) was collected with an integrating sphere (λex = 510 nm), while the area of emission was obtained from the characterized 1270 nm ^1O2 phosphorescence emission. For collection of such emission, CH3CN and D2O mixed solvent (v (D2O): v (CH3CN) = 1:15, pH = 9.0, adjusted with 0.001 M NaOH) was used, since H2O can severely quench the singlet oxygen luminescence. For all the measurements, the concentrations of the PSs were set at 10 μM.
S6.3 Relative singlet oxygen quantum yield
The singlet O2 quantum yield of photosensitizers were measured by Fluolog-3 spectrofluorometer with an integration sphere (IS80, Labsphere) and NIR detector (Hamamatsu H-10330) in this work.
For better collection of the characterized singlet oxygen phosphorescence emission (1275 nm), CH3CN and D2O mixed solvent was used (H2O can severely quench the singlet oxygen luminescence). The 10 mM stock solutions in CH3CN and D2O mixed solvent (VCH3CN:VD2O = 15:1) were first prepared. The stock solutions were diluted to 10 μM, and the final volume was 2 mL. In addition, the CH3CN and D2O mixed solvent as blank was also prepared.
1. Turn on the instrument and the start software, the light source is xenon lamp.
2. From the experiment menu, selected spectra, emission. The 1O2 emission phosphorescence spectra are first measured.
3. The parameters setting are listed: a. Excitation wavelength: 510 nm

A short description of data set [2]: pH titration of halogenated fluorescein (pH0.5). The data set is classed as physicochemical. The procedure: The pH0.5 values (the pH value when the open form reduce to the half of the maximum) of various fluorescein derivatives were determined experimentally through pH titration (Supplementary Figs. 6–16).
The pH of the solutions were adjusted through varying the ratios of citric acid and Na2HPO4 (pH 2.2–8.0), and further acidity was adjusted with concentrated HCl or 1 M NaOH. The absorption and fluorescence spectra of the resultant solutions were then collected.
Section S5. pH-dependent Properties of the Halogenated Fluoresceins.
S5.1 pH titration of halogenated fluorescein
Fluorescein derivatives (Supplementary Table 1) were dissolved in DMSO to obtain 1 mM stock solutions and then diluted with citric acid-Na2HPO4 buffer (100 mM) to 10
μM. The pH of the solutions were adjusted through varying the ratios of citric acid and Na2HPO4 (pH 2.2-8.0), and further acidity was adjusted with concentrated HCl or 1 M
NaOH. The absorption and fluorescence spectra of the resultant solutions were then

For data set [3], the system named is broad band of aciduric bacteria. Nature of the data set: Photodynamic inactivation, summary over aciduric bacteria. Particulars: read-out: IC50 (broad band of aciduric bacteria).
Method: (§1) For quantitative comparison, the half-maximal inhibitory concentrations (IC50) of TIF for these bacterial were measured (Supplementary Table 6, and Supplementary Figs. 51–58).
(§2) The bacteria were cultured overnight in a constant temperature oscillator (37 °C, 170 r/min, the specific culture conditions were listed in Supplementary Table 6). Suspensions of bacteria (100 μL, diluted 1000-folds, PBS) were added with different concentration PSs (final volume of 1 mL), and irradiated with LED (λ = 520 nm, 35 mW/cm^2) for 10 min. Then, the treated bacteria liquid (100 μL) were added into the culture medium and cultured in a 24-well plate. The OD600 of bacteria was measured to obtain the bacteria CFUs, and the survival rate were calculated as C/C0 × 100%, where C is the CFU of sample which treated with PSs and light, and C0 is the blank without any treatment. All photodynamic sterilizations were carried out in at least three replicates.
In another data set the test system is E. coli. The experiment in a line: IC50 / growth inhibition of photodynamic inactivation, E. coli.
The nature of data set [4]: 1O2 phosphorescence emission under different pH and irradiance. The data set is classed as physicochemical. Conditions: pH 2.2 (the gastric acidity), 10 μM. The source says: To evaluate the pH-dependent ^1O2 generation, TIF, PB, and RB were chosen here because of their high ^1O2 generation efficiency and low pH0.5. […] Similar results from PB and RB were also observed (Supplementary Figs. 17 and 18). When pH was lowered down to 2.2 (the gastric acidity), appreciable ^1O2 phosphorescence emission was still collected from TIF, indicating the good performance of TIF in photosensitized generation of ^1O2 in extremely acidic condition. Besides, the pH-induced decrease of ^1O2 generation could be compensated through enlarging the light irradiance. […] Therefore, TIF featured good performance for potential photodynamic bacteria inactivation at extremely acidic conditions.
A total of 10 μM TIF solutions were first prepared with citric acid–Na2HPO4 buffer (100 mM, diluted by D2O) to yield different pH (2.2–6.0). Then, a laser of 532 nm was selected as the lighting source, and the ^1O2 phosphorescence emission were collected.
S5.3 1O2 phosphorescence emission of TIF under different pH and irradiance 10 μM TIF solutions were first prepared with citric acid-Na2HPO4 buffer (100 mM, diluted by D2O) to yield different pH (2.2-6.0). The pH value of solution were adjust by HCl (c, diluted by D2O). Then, laser of 532 nm was selected as the light source, and the 1O2 phosphorescence emission were collected by near infrared detector (H-10330)
Supplementary Figure 19. […]

The test system of the next data set is MRSA. Nature of the data set: IC50 / growth inhibition of photodynamic inactivation, MRSA. The class given is cell-based, methicillin-resistant S. aureus.
Data set [5] relates to C. albicans infection of oral mucosa.
From the text: The extremely acidic environment was constructed through changing the pH of the mucosa and diluting PSs in pH 3.0 PBS buffer. […] During the investigations, the infected ICR mice were divided into six groups (six mice per group): blank, light, TIF, TIF + light, Ce 6 + light, and Zn-tpp + light. For comparison and better visualization of the infection, a normal group (no infection) was also included.
To construct the oral mucosal infection model, cotton balls immersed in solutions containing 10^8 CFU/mL of C. albicans were placed in the mouth of mice for 75 min. At day 1 and day 3, 50 μL pH 3.0 PBS and PSs (20 μM, diluted by pH 3.0 PBS) were added to oral mucosa, and treated with different lasers (510 nm for TIF, 660 nm for Ce 6 and Zn-tpp, 50 mW/cm^2) for 10 min.
To investigate the therapy effect, photographs, colonies, weights, and pathology index of mice were taken every other day. After day 3, one mouse in each group was sacrificed, and the tissues of oral mucosa were harvested for hematoxylin and eosin (H&E) staining. The pathology index was evaluated based on the standard given in Supplementary Table 10.
In data set [6] the test system is C. albicans. Nature of the data set: Fresh food preservation (infected tomato model). On the set-up: species or system Candida albicans. The source says:
Besides fruit juices, the potential of TIF for photo-assisted fresh food preservation was also investigated with tomato as the model (pH 3.0). […] Therefore, the food additive TIF is also promising for fresh food preservation.
Tomatoes were selected as the model for photo-assisted fresh food preservation. All the tomatoes were divided into six groups, and made a wound of ~7 cm^2 by hot water. […] Afterward, the tomatoes were stored at room temperature and then subjected to repeated irradiation at day 2. The total viable counts of bacteria on the infected tomatoes were measured in day 3.

For data set [7], the system named is C. albicans. Nature of the data set: IC50 of photodynamic inactivation, C. albicans. Particulars: Candida albicans, 10 min, pH 3, read-out: IC50 (C. albicans).
Method: as §1
Bacterial strains are listed in Supplementary Table 6. S. aureus and MRSA, and C. albicans were provided by West China Hospital of Stomatology, Sichuan University. A. acidoterrestris, S. enterica, H. pylori, L. plantarum, and E. coli were provided by College of Life Science, Sichuan University. The bacteria were cultured overnight in a constant temperature oscillator (37 °C, 170 r/min, the specific culture conditions were listed in Supplementary Table 6). Suspensions of bacteria (100 μL, diluted 1000-folds, PBS) were added with different concentration PSs (final volume of 1 mL), and irradiated with LED (λ = 520 nm, 35 mW/cm^2) for 10 min. Then, the treated bacteria liquid (100 μL) were added into the culture medium and cultured in a 24-well plate. The OD600 of bacteria was measured to obtain the bacteria CFUs, and the survival rate were calculated as C/C0 × 100%, where C is the CFU of sample which treated with PSs and light, and C0 is the blank without any treatment. All photodynamic sterilizations were carried out in at least three replicates.
Irradiation: 520 nm green LED (6 mW/cm2), 10 min. Error bars = Standard Deviation (n=3).
Irradiation: 520 nm green LED (6 mW/cm2), 10 min.

One may read the IC50 as the point on the concentration scale where inhibition reaches its midpoint.

Method for E. coli: as §2
(§3) Growth inhibition of E. coli by different concentrations of TIF.
(§4) Irradiation: 520 nm green LED (6 mW/cm2), 10 min. Error bars = Standard Deviation (n=6).
(§5) Growth inhibition of Salmonella by different concentrations of
(§6) TIF. Irradiation: 520 nm green LED (6 mW/cm2), 10 min.
Method for Salmonella: as §2, §3, §4, §5, §6

Consider `O=C(O)c1ccccc1-c1c2cc(I)c(=O)c(I)c-2oc2c(I)c(O)c(I)cc12` [TIF, 2′,4′,5′,7′-tetraiodofluorescein], for which the IC50 is 0.63 µM in the data set on Salmonella; under 1.1 µM in data set [3]; 0.21 µM in the data set on E. coli (Escherichia coli, 10 min, pH 2.5, read-out: IC50 (E. coli)); 0.34 µM with MRSA (Staphylococcus aureus, 10 min, pH 2.5, LED 520 nm, 35 mW/cm^2, 10 min); 1.04 µM with C. albicans [7]. The “singlet oxygen quantum yield (ΦΔ)” value in data set [1] amounted to 0.64. In [2] (2% DMSO citric acid-disodium hydrogen phosphate buffer (Supplementary Table 4)), this compound came in with a pH0.5 of 4.07. The “lowering of pH0.5 compared with fluorescein” value in data set [2] (difference to fluorescein (6.09)) amounted to 2.02 units. The Inhibition ratio in the data set on E. coli (E.coli, dose 0.5 μM, 3 V/3 W, 6 mW/cm2, 10 min) is on record as over 99.3%; in the data set with MRSA (dose 2.0 μM, 3 V/3 W, 6 mW/cm2, 10 min) it was over 97.1%. In [4], the “1O2 phosphorescence emission (1270 nm)” value is recorded as “appreciable”. Further, the “pseudo membrane on tongue” value in data set [5] (TIF + light group) was “disappeared gradually”. Besides, in [5] (TIF + light group, within 7 days), the “body weight loss of infected mice” value is “least loss”. Besides, the pathology index entry in [5] (TIF + light group, 20 μM in pH 3.0 PBS, 510 nm 50 mW/cm^2 10 min, day 1 and day 3) is reported as “remained almost unchanged”. For the same compound, the “H&E staining of tongue sections, without light” value in data set [5] (TIF group, no light) was “large amounts of inflammation infiltration”. For the same compound, the “H&E staining of tongue sections, with light” value in [5] (photosensitizer + light (510 nm TIF, 660 nm Ce 6 and Zn-tpp)) is given as “generally similar to that of the normal group”. Further, the “wound infection of tomatoes, without light” value in the data set with C. albicans [6] (10 μM in pH 3.0 PBS, TIF only) was “different magnitudes of wound infection”. Besides, the “colony counting of infected tomatoes” value with C. albicans [6] (day 3, 10 μM, pH 3.0, 520 nm LED) is “excellent antimicrobial ability”.
